Results from patent US7671048B2, “Substituted imidazo [1,5-a][1,2,4]triazolo[1,5-d][1,4]benzodiazepine derivatives” (priority 2004, dated 2010).
Where two headings read alike, the source gives them in different places.

Columns and labels:
GABA A receptor α2β3γ2 = target: T1, GABA A receptor α2β3γ2 (Homo sapiens, UniProt P18507+P47869); experiment: [3H]flumazenil competition binding, human α2β3γ2
T1 construct: expressed in transfected cells; host or cells: HEK293 (transiently transfected), membranes
Method: (§1) The affinity of compounds at GABA A receptor subtypes was measured by competition for [^3H]flumazenil (85 Ci/mmol; Roche) binding to HEK293 cells expressing rat (stably transfected) or human (transiently transfected) receptors of composition α1β3γ2, α2β3γ2, α3β3γ2 and α5β3γ2.
(§2) Cell pellets were suspended in Krebs-tris buffer (4.8 mM KCl, 1.2 mM CaCl2, 1.2 mM MgCl2, 120 mM NaCl, 15 mM Tris; pH 7.5; binding assay buffer), homogenized by polytron for ca. 20 sec on ice and centrifuged for 60 min at 4° C. (50000 g; Sorvall, rotor: SM24=20000 rpm). The cell pellets were resuspended in Krebs-tris buffer and homogenized by polytron for ca. 15 sec on ice. Protein was measured (Bradford method, Bio-Rad) and aliquots of 1 mL were prepared and stored at −80° C.
(§3) Radioligand binding assays were carried out in a volume of 200 μL (96-well plates) which contained 100 μL of cell membranes, [^3H]flumazenil at a concentration of 1 nM for α1, α2, α3 subunits and 0.5 nM for α5 subunits and the test compound in the range of 10^−10−3×10^−6 M. Nonspecific binding was defined by 10^−5 M diazepam and typically represented less than 5% of the total binding. Assays were incubated to equilibrium for 1 hour at 4° C. and harvested onto GF/C uni-filters (Packard) by filtration using a Packard harvester and washing with ice-cold-wash buffer (50 mM Tris; pH 7.5). After drying, filter-retained radioactivity was detected by liquid scintillation counting. Ki values were calculated using Excel-Fit (Microsoft) and are the means of two determinations.

GABA A receptor α1β3γ2 = target: T2, GABA A receptor α1β3γ2 (Homo sapiens, UniProt P14867+P18507); experiment: [3H]flumazenil competition binding, human α1β3γ2
T2 construct: expressed in transfected cells; host or cells: HEK293 (transiently transfected), membranes
Method: as §1, §2, §3

GABA A receptor α3β3γ2 = target: T3, GABA A receptor α3β3γ2 (Homo sapiens, UniProt P18507+P34903); experiment: [3H]flumazenil competition binding, human α3β3γ2
T3 construct: expressed in transfected cells; host or cells: HEK293 (transiently transfected), membranes
Method: as §1, §2, §3

GABA A receptor α5β3γ2 = target: T4, GABA A receptor α5β3γ2 (Homo sapiens, UniProt P18507+P31644); experiment: [3H]flumazenil competition binding, human α5β3γ2
T4 construct: expressed in transfected cells; host or cells: HEK293 (transiently transfected), membranes
Method: as §1, §2, §3

[1] = HEK293 cell membranes, human (transiently transfected) receptor, 1 nM [3H]flumazenil, mean of two determinations, read-out: Ki[nM] hα2
[2] = HEK293 cell membranes, human (transiently transfected) receptor, 1 nM [3H]flumazenil, mean of two determinations, read-out: Ki[nM] hα1
[3] = HEK293 cell membranes, human (transiently transfected) receptor, 1 nM [3H]flumazenil, mean of two determinations, read-out: Ki[nM] hα3
[4] = HEK293 cell membranes, human (transiently transfected) receptor, 0.5 nM [3H]flumazenil, mean of two determinations, read-out: Ki[nM] hα5

Row | SMILES | Ki (GABA A receptor α2β3γ2) | Ki (GABA A receptor α1β3γ2) | Ki (GABA A receptor α3β3γ2) | Ki (GABA A receptor α5β3γ2) | Ki (GABA A receptor α2β3γ2; [1]) | Ki (GABA A receptor α1β3γ2; [2]) | Ki (GABA A receptor α3β3γ2; [3]) | Ki (GABA A receptor α5β3γ2; [4])
1 | CCOC(=O)c1ncn2c1Cn1ncnc1-c1cc(NC=O)ccc1-2 [Example 42, Ethyl 3-formylamino-9H-imidazo[1,5-a][1,2,4]triazolo[1,5-d][1,4]benzodiazepine-10-carboxylate] | 8.6 nM | 6.5 nM | 4.9 nM | 2 nM |  |  |  | 
2 | O=C(c1ncn2c1Cn1ncnc1-c1cc(Cl)ccc1-2)C1CC1 [Example 6, Cyclopropyl-[3-chloro-9H-imidazo[1,5-a][1,2,4]triazolo[1,5-d][1,4]benzodiazepin-10-yl]-methanone] | 18 nM | 14.5 nM | 19.9 nM | 2.2 nM |  |  |  | 
3 | CCOC(=O)Nc1ccc2c(c1)-c1ncnn1Cc1c(C(=O)OCC)ncn1-2 [Example 43, Ethyl 3-ethoxycarbonylamino-9H-imidazo[1,5-a][1,2,4]triazolo[1,5-d][1,4]benzodiazepine-10-carboxylate] | 22 nM | 5.3 nM | 14.4 nM | 2.6 nM |  |  |  | 
4 | CC(C)CC(=O)c1ncn2c1Cn1ncnc1-c1cc(Br)ccc1-2 [Example 31, 1-[3-Bromo-9H-imidazo[1,5-a][1,2,4]triazolo[1,5-d][1,4]benzodiazepin-10-yl]-3-methyl-butan-1-one] |  |  |  | 8.3 nM | 261 nM | 243 nM | 173 nM | 
5 | CCOC(=O)c1ncn2c1Cn1ncnc1-c1cc(NC(=O)C(C)C)ccc1-2 [Example 39, Ethyl 3-isobutyrylamino-9H-imidazo[1,5-a][1,2,4]triazolo[1,5-d][1,4]benzodiazepine-10-carboxylate] | 73.5 nM | 11.4 nM | 39.7 nM | 6.4 nM |  |  |  | 
6 | C#Cc1ccc2c(c1)-c1ncnn1Cc1c(C(=O)OCC)ncn1-2 [Example 24, Ethyl 3-ethynyl-9H-imidazo[1,5-a][1,2,4]triazolo[1,5-d][1,4]benzodiazepine-10-carboxylate] | 4.4 nM | 10.6 nM | 6.4 nM | 0.6 nM |  |  |  | 
7 | O=Cc1ncn2c1Cn1ncnc1-c1cc(Cl)ccc1-2 [Example 21, 3-Chloro-9H-imidazo[1,5-a][1,2,4]triazolo[1,5-d][1,4]benzodiazepine-10-carbaldehyd] |  |  | 71.9 nM | 5.9 nM | 134 nM | 223 nM |  | 
8 | O=C1CCCN1C(=O)c1ncn2c1Cn1ncnc1-c1cc(F)ccc1-2 [Example 9, 1-[[3-Fluoro-9H-imidazo[1,5-a][1,2,4]triazolo[1,5-d][1,4]benzodiazepin-10-yl]carbonyl]-2-pyrrolidinone] | 12.3 nM | 12.3 nM | 9 nM | 5.8 nM |  |  |  | 
9 | CCOC(=O)c1ncn2c1Cn1ncnc1-c1cc(OC)ccc1-2 [Example 14, Ethyl 3-methoxy-9H-imidazo[1,5-a][1,2,4]triazolo[1,5-d][1,4]benzodiazepine-10-carboxylate] | 1.7 nM | 0.9 nM | 0.9 nM | 0.2 nM |  |  |  | 
10 | CCC(=O)c1ncn2c1Cn1ncnc1-c1cc(Cl)ccc1-2 [Example 5, 1-[3-Chloro-9H-imidazo[1,5-a][1,2,4]triazolo[1,5-d][1,4]benzodiazepin-10-yl]-propan-1-one] | 28.1 nM | 32.2 nM | 22.4 nM | 2.7 nM |  |  |  | 
11 | CCOC(=O)c1ncn2c1Cn1ncnc1-c1cc(C3CC3)ccc1-2 [Example 12, Ethyl 3-cyclopropyl-9H-imidazo[1,5-a][1,2,4]triazolo[1,5-d][1,4]benzodiazepine-10-carboxylate] | 0.9 nM | 1.7 nM | 0.7 nM | 0.6 nM |  |  |  | 
12 | C#CCNC(=O)c1ncn2c1Cn1ncnc1-c1cc(F)ccc1-2 [Example 10, 3-Fluoro-9H-imidazo[1,5-a][1,2,4]triazolo[1,5-d][1,4]benzodiazepine-10-carboxylic acid prop-2-ynylamide] | 67.8 nM |  | 64.9 nM | 67.8 nM |  | 242 nM |  | 
13 | CCNC(=O)Nc1ccc2c(c1)-c1ncnn1Cc1c(C(=O)OCC)ncn1-2 [Example 44, Ethyl 3-(3-ethyl-ureido)-9H-imidazo[1,5-a][1,2,4]triazolo[1,5-d][1,4]benzodiazepine-10-carboxylate] | 26 nM | 20.3 nM | 12.4 nM | 6.9 nM |  |  |  | 
14 | O=C(CCCc1ccccc1)c1ncn2c1Cn1ncnc1-c1cc(F)ccc1-2 [Example 4, 1-[3-Fluoro-9H-imidazo[1,5-a][1,2,4]triazolo[1,5-d][1,4]benzodiazepin-10-yl]-4-phenyl-butan-1-one] | 60 nM | 45.6 nM | 55.9 nM | 16.4 nM |  |  |  | 
15 | CCOC(=O)c1ncn2c1Cn1ncnc1-c1cc(OC(F)(F)F)ccc1-2 [Example 19, Ethyl 3-trifluoromethoxy-9H-imidazo[1,5-a][1,2,4]triazolo[1,5-d][1,4]benzodiazepine-10-carboxylate] | 1.1 nM | 3.4 nM | 1.4 nM | 0.7 nM |  |  |  | 
16 | CCC(=O)c1ncn2c1Cn1ncnc1-c1cc(F)ccc1-2 [Example 2, 1-[3-Fluoro-9H-imidazo[1,5-a][1,2,4]triazolo[1,5-d][1,4]benzodiazepin-10-yl]-propan-1-one] | 3.4 nM | 6.2 nM | 3.9 nM | 2.2 nM |  |  |  | 
17 | CC(=O)c1ncn2c1Cn1ncnc1-c1cc(F)ccc1-2 [Example 1, 1-[3-Fluoro-9H-imidazo[1,5-a][1,2,4]triazolo[1,5-d][1,4]benzodiazepin-10-yl]-ethanone] |  |  |  |  | 183 nM | 314 nM | 233 nM | 104 nM
18 | CCOC(=O)c1ncn2c1Cn1ncnc1-c1cc(Br)ccc1-2 [Example 23, Ethyl 3-bromo-9H-imidazo[1,5-a][1,2,4]triazolo[1,5-d][1,4]benzodiazepine-10-carboxylate] |  |  |  |  | 3.8 nM | 1.9 nM | 1.8 nM | 0.3 nM
19 | CCCC(=O)c1ncn2c1Cn1ncnc1-c1cc(Br)ccc1-2 [Example 26, 1-[3-Bromo-9H-imidazo[1,5-a][1,2,4]triazolo[1,5-d][1,4]benzodiazepin-10-yl]-butan-1-one] |  | 85.1 nM | 72.7 nM | 3.5 nM | 106 nM |  |  | 
20 | O=C(CCc1ccccc1)c1ncn2c1Cn1ncnc1-c1cc(Br)ccc1-2 [Example 33, 1-[3-Bromo-9H-imidazo[1,5-a][1,2,4]triazolo[1,5-d][1,4]benzodiazepin-10-yl]-3-phenyl-propan-1-one] |  |  |  | 3.8 nM | 160 nM | 109 nM | 133 nM | 
21 | O=C(c1ncn2c1Cn1ncnc1-c1cc(F)ccc1-2)C1CC1 [Example 3, Cyclopropyl-[3-fluoro-9H-imidazo[1,5-a][1,2,4]triazolo[1,5-d][1,4]benzodiazepin-10-yl]-methanone] | 2 nM | 2.8 nM | 1.8 nM | 1.2 nM |  |  |  | 
22 | COCCOC(=O)c1ncn2c1Cn1ncnc1-c1cc(Br)ccc1-2 [Example 25, 2-Methoxy-ethyl 3-bromo-9H-imidazo[1,5-a][1,2,4]triazolo[1,5-d][1,4]benzodiazepine-10-carboxylate] | 28.5 nM | 20.3 nM | 18.8 nM | 1.4 nM |  |  |  | 
23 | CCOC(=O)c1ncn2c1Cn1ncnc1-c1cc(NC(=O)C(F)(F)F)ccc1-2 [Example 38, Ethyl 3-(2,2,2-trifluoro-acetylamino)-9H-imidazo[1,5-a][1,2,4]triazolo[1,5-d][1,4]benzodiazepine-10-carboxylate] | 7.3 nM | 3.1 nM | 5.7 nM | 1.2 nM |  |  |  | 
24 | CCOC(=O)c1ncn2c1Cn1ncnc1-c1cc(NC(=O)CCOC)ccc1-2 [Example 41, Ethyl 3-(3-methoxy-propionylamino)-9H-imidazo[1,5-a][1,2,4]triazolo[1,5-d][1,4]benzodiazepine-10-carboxylate] | 24.8 nM | 9.7 nM | 17.7 nM | 5.1 nM |  |  |  | 
